Laboratory results reported in PMC8920929 (The Journal of Biological Chemistry, 2022).

Experiments:
mice = settings: mice, but not TRPV3-KO mice; ref [33], [34]; cited from earlier work
TRPV3-L508V = biological target: T1, TRPV3-L508V (Homo sapiens, UniProt Q8NET8, L508V); experiment: Whole-cell and single-channel recordings of the TRPV3-L508V mutant; type: cell-based; settings: carvacrol 0.3-3 mM
T1 sequence (Q8NET8 1-790 L508V): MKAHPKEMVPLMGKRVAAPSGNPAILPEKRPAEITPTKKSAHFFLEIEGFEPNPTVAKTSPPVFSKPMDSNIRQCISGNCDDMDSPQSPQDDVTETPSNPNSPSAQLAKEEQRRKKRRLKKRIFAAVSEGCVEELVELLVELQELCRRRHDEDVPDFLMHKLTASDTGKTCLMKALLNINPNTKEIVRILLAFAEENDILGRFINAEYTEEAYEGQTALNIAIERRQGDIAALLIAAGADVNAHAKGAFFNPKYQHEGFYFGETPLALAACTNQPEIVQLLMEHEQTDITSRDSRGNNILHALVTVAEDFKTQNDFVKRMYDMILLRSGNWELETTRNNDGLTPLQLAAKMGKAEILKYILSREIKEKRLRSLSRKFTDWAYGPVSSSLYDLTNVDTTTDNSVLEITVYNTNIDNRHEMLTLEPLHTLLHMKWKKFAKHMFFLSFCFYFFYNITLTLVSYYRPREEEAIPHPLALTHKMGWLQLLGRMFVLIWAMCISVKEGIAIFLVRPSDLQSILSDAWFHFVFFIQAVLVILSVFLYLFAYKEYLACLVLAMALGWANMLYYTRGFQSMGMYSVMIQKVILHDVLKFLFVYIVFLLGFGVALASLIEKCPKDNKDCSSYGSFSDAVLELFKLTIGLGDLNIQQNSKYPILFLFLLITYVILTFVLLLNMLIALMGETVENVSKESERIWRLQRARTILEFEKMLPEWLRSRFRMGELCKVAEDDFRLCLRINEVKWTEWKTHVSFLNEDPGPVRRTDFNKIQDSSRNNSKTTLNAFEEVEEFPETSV

## Cc1ccc(C(C)C)cc1O [carvacrol, 5-Isopropyl-2-methylphenol]
mice
  pruritus on pharmacological activation of TRPV3: induces pruritus
TRPV3-L508V
  activation of TRPV3 L508V mutant channel: retain the channel activation
